Laboratory results from PubChem BioAssay AID330 (DTP/NCI, 2004).
“And” between values parts separate entries of the source, which are not always exact repeats. Equal entries are not always repeated. Inconclusive results and toxic doses are left out.

Tested on: P388 leukemia ip, CD2F1 mice, survival T/C
Assay: NCI In Vivo Anticancer Drug Screen. Data for tumor model P388 Leukemia (intraperitoneal) in CD2F1 (CDF1) mice
Details: endpoint: median survival time, higher = longer survival
In short: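 Mice carrying the transplanted tumor received test compound or vehicle. Survival was recorded in each group, and the value is the treated-group measurement divided by that of the vehicle-treated control group.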

COc1cc2cc(c1Cl)N(C)C(=O)C[C@H](OC(=O)[C@H](C)N(C)C(C)=O)[C@]1(C)O[C@H]1[C@H](C)[C@@H]1C[C@@](O)(NC(=O)O1)[C@H](OC)C=C/C=C(\C)C2 was tested, and the T/C (dose: 0.01 mg/kg/injection, schedule: Q01DX005 (iv), vehicle: saline) was 117 % of control, the T/C (dose: 0.03 mg/kg/injection, schedule: Q01DX005 (iv), vehicle: saline) was 107 % of control and the T/C (dose: 0.05 mg/kg/injection, schedule: Q01DX005 (ip), vehicle: saline) was 158 % of control. For the same molecule, the T/C (dose: 0.05 mg/kg/injection, schedule: Q01DX005 (iv), vehicle: saline) was 104 % of control, the T/C (dose: 0.05 mg/kg/injection, schedule: Q04DX002 (ip), vehicle: saline + alcohol) was 169 % of control and the T/C (dose: 0.08 mg/kg/injection, schedule: Q04DX002 (ip), vehicle: saline + alcohol) was 171 % of control. For the same molecule, the T/C (dose: 0.1 mg/kg/injection, schedule: Q01DX005 (ip), vehicle: saline) was 172 % of control, the T/C (dose: 0.1 mg/kg/injection, schedule: Q01DX005 (iv), vehicle: saline) was 107 % of control and the T/C (dose: 0.16 mg/kg/injection, schedule: Q04DX003 (ip), vehicle: saline) was 123 % of control. For the same molecule, the T/C (dose: 0.1 micrograms/kg/injection, schedule: Q01DX009 (ip), vehicle: saline) was 100 % of control, the T/C (dose: 0.3 micrograms/kg/injection, schedule: Q03HX016 (ip), vehicle: other) was 122 % of control and the T/C (dose: 0.4 micrograms/kg/injection, schedule: Q01DX009 (ip), vehicle: saline) was 112 % of control. The T/C (dose: 0.5 micrograms/kg/injection, schedule: Q01DX009 (oral), vehicle: other) was 100 % of control, the T/C (dose: 0.5 micrograms/kg/injection, schedule: Q01DX009 (sc), vehicle: other) was 100 % of control and the T/C (dose: 0.5 micrograms/kg/injection, schedule: Q03HX008 (ip), vehicle: other) was 122 % of control. For the same molecule, the T/C (dose: 0.8 micrograms/kg/injection, schedule: Q01DX009 (ip), vehicle: saline) was 120 % of control, the T/C (dose: 1.0 micrograms/kg/injection, schedule: Q01DX001 (ip), vehicle: other) was 109 % of control and the T/C (dose: 1.0 micrograms/kg/injection, schedule: Q01DX009 (ip), vehicle: saline + alcohol) was 111 % of control. For the same molecule, the T/C (dose: 1.0 micrograms/kg/injection, schedule: Q01DX009 (oral), vehicle: other) was 100 % of control, the T/C (dose: 1.0 micrograms/kg/injection, schedule: Q01DX009 (sc), vehicle: other) was 100 % of control and the T/C (dose: 1.0 micrograms/kg/injection, schedule: Q08DX002 (ip), vehicle: other) was 109 % of control. The T/C (dose: 2.0 micrograms/kg/injection, schedule: Q01DX001 (oral), vehicle: other) was 100 % of control, the T/C (dose: 2.0 micrograms/kg/injection, schedule: Q01DX001 (sc), vehicle: other) was 100 % of control and the T/C (dose: 2.0 micrograms/kg/injection, schedule: Q01DX009 (ip), vehicle: water) was 117 % of control. The T/C (dose: 2.0 micrograms/kg/injection, schedule: Q01DX009 (sc), vehicle: other) was 100 % of control, the T/C (dose: 3.1 micrograms/kg/injection, schedule: Q01DX009 (ip), vehicle: saline + alcohol) was 158 % of control and the T/C (dose: 4.0 micrograms/kg/injection, schedule: Q01DX001 (oral), vehicle: other) was 100 % of control. For the same molecule, the T/C (dose: 4.0 micrograms/kg/injection, schedule: Q01DX009 (ip), vehicle: other) was 154 % of control, the T/C (dose: 4.0 micrograms/kg/injection, schedule: Q01DX009 (ip), vehicle: water) was 157 % of control and the T/C (dose: 4.0 micrograms/kg/injection, schedule: Q01DX009 (oral), vehicle: other) was 104 % of control. The T/C (dose: 4.0 micrograms/kg/injection, schedule: Q01DX009 (sc), vehicle: other) was 100 % of control, the T/C (dose: 4.0 micrograms/kg/injection, schedule: Q03HX016 (ip), vehicle: other) was 159 % of control and the T/C (dose: 6.3 micrograms/kg/injection, schedule: Q01DX009 (ip), vehicle: saline + alcohol) was 160 % of control. For the same molecule, the T/C (dose: 6.3 micrograms/kg/injection, schedule: Q01DX009 (ip), vehicle: saline) was 159 % of control, the T/C (dose: 8.0 micrograms/kg/injection, schedule: Q01DX001 (oral), vehicle: other) was 104 % of control and the T/C (dose: 8.0 micrograms/kg/injection, schedule: Q01DX001 (sc), vehicle: other) was 100 % of control. For the same molecule, the T/C (dose: 8.0 micrograms/kg/injection, schedule: Q01DX005 (ip), vehicle: saline + alcohol) was 157 % of control, the T/C (dose: 8.0 micrograms/kg/injection, schedule: Q01DX009 (ip), vehicle: other) was 154 % of control and the T/C (dose: 8.0 micrograms/kg/injection, schedule: Q01DX009 (ip), vehicle: water) was 150 % of control. For the same molecule, the T/C (dose: 8.0 micrograms/kg/injection, schedule: Q01DX009 (oral), vehicle: other) was 100 % of control, the T/C (dose: 8.0 micrograms/kg/injection, schedule: Q01DX009 (sc), vehicle: other) was 100 % of control and the T/C (dose: 8.0 micrograms/kg/injection, schedule: Q03HX008 (ip), vehicle: other) was 163 % of control. The T/C (dose: 8.0 micrograms/kg/injection, schedule: Q03HX016 (ip), vehicle: other) was 163 % of control, the T/C (dose: 8.0 micrograms/kg/injection, schedule: Q03HX016 (ip), vehicle: saline + alcohol) was 163 % of control and the T/C (dose: 8.0 micrograms/kg/injection, schedule: Q04DX003 (ip), vehicle: other) was 150 % of control. The T/C (dose: 12.5 micrograms/kg/injection, schedule: Q01DX009 (ip), vehicle: saline + alcohol) was 159 % of control and 172 % of control, the T/C (dose: 16.0 micrograms/kg/injection, schedule: Q01DX001 (oral), vehicle: other) was 100 % of control and the T/C (dose: 16.0 micrograms/kg/injection, schedule: Q01DX001 (sc), vehicle: other) was 100 % of control. The T/C (dose: 16.0 micrograms/kg/injection, schedule: Q01DX005 (ip), vehicle: saline + alcohol) was 155 % of control and 157 % of control and 160 % of control, the T/C (dose: 16.0 micrograms/kg/injection, schedule: Q01DX009 (ip), vehicle: water) was 159 % of control and the T/C (dose: 16.0 micrograms/kg/injection, schedule: Q01DX009 (oral), vehicle: other) was 100 % of control. For the same molecule, the T/C (dose: 16.0 micrograms/kg/injection, schedule: Q01DX009 (sc), vehicle: other) was 100 % of control, the T/C (dose: 16.0 micrograms/kg/injection, schedule: Q03HX008 (ip), vehicle: saline + alcohol) was 163 % of control and the T/C (dose: 16.0 micrograms/kg/injection, schedule: Q04DX003 (ip), vehicle: other) was 154 % of control. The T/C (dose: 16.0 micrograms/kg/injection, schedule: Q04DX003 (ip), vehicle: water) was 151 % of control, the T/C (dose: 25.0 micrograms/kg/injection, schedule: Q01DX009 (ip), vehicle: saline + alcohol) was 163 % of control and the T/C (dose: 32.0 micrograms/kg/injection, schedule: Q01DX001 (oral), vehicle: other) was 100 % of control. For the same molecule, the T/C (dose: 32.0 micrograms/kg/injection, schedule: Q01DX001 (sc), vehicle: other) was 100 % of control, the T/C (dose: 32.0 micrograms/kg/injection, schedule: Q01DX005 (ip), vehicle: saline + alcohol) was 163 % of control and 172 % of control and the T/C (dose: 32.0 micrograms/kg/injection, schedule: Q01DX009 (oral), vehicle: other) was 109 % of control. The T/C (dose: 32.0 micrograms/kg/injection, schedule: Q01DX009 (sc), vehicle: other) was 104 % of control, the T/C (dose: 32.0 micrograms/kg/injection, schedule: Q03HX016 (ip), vehicle: saline + alcohol) was 163 % of control and the T/C (dose: 32.0 micrograms/kg/injection, schedule: Q03HX024 (ip), vehicle: saline + alcohol) was 122 % of control. For the same molecule, the T/C (dose: 32.0 micrograms/kg/injection, schedule: Q04DX003 (ip), vehicle: other) was 172 % of control, the T/C (dose: 50.0 micrograms/kg/injection, schedule: Q01DX005 (ip), vehicle: saline) was 173 % of control and the T/C (dose: 50.0 micrograms/kg/injection, schedule: Q01DX009 (ip), vehicle: saline + alcohol) was 159 % of control. For the same molecule, the T/C (dose: 64.0 micrograms/kg/injection, schedule: Q01DX001 (oral), vehicle: other) was 100 % of control, the T/C (dose: 64.0 micrograms/kg/injection, schedule: Q01DX001 (sc), vehicle: other) was 100 % of control and the T/C (dose: 64.0 micrograms/kg/injection, schedule: Q01DX005 (ip), vehicle: saline + alcohol) was 173 % of control and 175 % of control. The T/C (dose: 64.0 micrograms/kg/injection, schedule: Q01DX009 (oral), vehicle: other) was 104 % of control, the T/C (dose: 64.0 micrograms/kg/injection, schedule: Q01DX009 (sc), vehicle: other) was 109 % of control and the T/C (dose: 64.0 micrograms/kg/injection, schedule: Q03HX008 (ip), vehicle: saline + alcohol) was 159 % of control. For the same molecule, the T/C (dose: 64.0 micrograms/kg/injection, schedule: Q04DX003 (ip), vehicle: water) was 161 % of control, the T/C (dose: 64.0 micrograms/kg/injection, schedule: Q08DX002 (ip), vehicle: other) was 150 % of control and the T/C (dose: 86.4 micrograms/kg/injection, schedule: Q04DX002 (ip), vehicle: saline + alcohol) was 160 % of control. For the same molecule, the T/C (dose: 128.0 micrograms/kg/injection, schedule: Q01DX001 (ip), vehicle: other) was 154 % of control, the T/C (dose: 128.0 micrograms/kg/injection, schedule: Q01DX001 (oral), vehicle: other) was 104 % of control and the T/C (dose: 128.0 micrograms/kg/injection, schedule: Q01DX001 (sc), vehicle: other) was 109 % of control. The T/C (dose: 128.0 micrograms/kg/injection, schedule: Q01DX009 (oral), vehicle: other) was 100 % of control, the T/C (dose: 128.0 micrograms/kg/injection, schedule: Q01DX009 (sc), vehicle: saline + alcohol) was 154 % of control and the T/C (dose: 128.0 micrograms/kg/injection, schedule: Q04DX003 (ip), vehicle: saline + alcohol) was 163 % of control. For the same molecule, the T/C (dose: 128.0 micrograms/kg/injection, schedule: Q04DX003 (ip), vehicle: water) was 150 % of control, the T/C (dose: 128.0 micrograms/kg/injection, schedule: Q08DX002 (ip), vehicle: other) was 163 % of control and the T/C (dose: 128.0 micrograms/kg/injection, schedule: Q08DX002 (ip), vehicle: saline + alcohol) was 163 % of control. For the same molecule, the T/C (dose: 128.0 micrograms/kg/injection, schedule: Q08DX002 (ip), vehicle: saline) was 154 % of control, the T/C (dose: 144.0 micrograms/kg/injection, schedule: Q04DX002 (ip), vehicle: saline + alcohol) was 169 % of control and the T/C (dose: 256.0 micrograms/kg/injection, schedule: Q01DX001 (ip), vehicle: other) was 150 % of control. The T/C (dose: 256.0 micrograms/kg/injection, schedule: Q01DX001 (ip), vehicle: saline + alcohol) was 150 % of control, the T/C (dose: 256.0 micrograms/kg/injection, schedule: Q01DX001 (oral), vehicle: other) was 104 % of control and the T/C (dose: 256.0 micrograms/kg/injection, schedule: Q01DX009 (sc), vehicle: saline + alcohol) was 172 % of control. For the same molecule, the T/C (dose: 256.0 micrograms/kg/injection, schedule: Q08DX002 (ip), vehicle: saline) was 172 % of control, the T/C (dose: 512.0 micrograms/kg/injection, schedule: Q01DX001 (ip), vehicle: saline + alcohol) was 154 % of control and the T/C (dose: 512.0 micrograms/kg/injection, schedule: Q01DX001 (oral), vehicle: other) was 100 % of control. For the same molecule, the T/C (dose: 1024.0 micrograms/kg/injection, schedule: Q08DX002 (ip), vehicle: saline) was 109 % of control.
